Test results as given in patent US20040266885A1, “Wood preservative compositions” (priority 2001, published 2004).
Where “and” joins values, the source holds several entries; their conditions need not be identical. Identical values can stand only once. Like-named read-outs stand apart in the source and are kept apart here.

Test system: Coptotermes formosanus
Conditions: for Mean Rating (termite attack): mean of 4 specimens; for Mean Rating (termite attack) / Termite Attack Rating: 4 weeks sand culture; for Termite Attack Rating: single specimen
Text: A laboratory test was undertaken to determine the toxic values of novel actives against termites. The active materials used were TBBA, TBBE [4,4′-ethylidenebis(2,6-dibromophenol)] [CAS RN=12639-25-3] (Sample Number 1392-82-03); TBBZ [4,4′-cyclohexylidene(2,6-dibromophenol)] [CAS RN=53350-96-2] (Sample Number 1392-72-03) and TBA, 2,2′,6-tribromo-4,4′-isopropylidenediphenol, CAS 6386-73-8 (Sample Number 1392-75-03).
The test was undertaken largely according to the strictures laid down in ASTM 3345-74 (the American standard laboratory test to assess the termite resistant properties of wood to wood destroying termites). The test method allows for the exposure of treated buried wood blocks to termites (Reticulitermes or Coptotermes spp.) over a period of 4 weeks. Efficacy of the product is determined by the extent of termite damage to the treated timber specimens through a scoring system. The test was slightly modified from the standard ASTM test by reducing the number of replicate wood specimens from 5 to 4.
Score 1: Attempted attack
The toxic values of the preservative product (in kg/m^3 of wood) fall between two values as follows:
1) The lowest concentration which protects the wood (i.e. the concentration at which none of the test specimens show a degree of attack greater than 1).
The termites employed were Coptotermes formosanus.
All wood bock specimens were of Southern Yellow Pine sapwood (Pinus spp.) with dimensions of 25.4×25.4×6.4 mm in accordance with ASTM D3345-74. All blocks were vacuum impregnated with the relevant solutions in accordance with ASTM D3345-74. Distribution of blocks in the test was as follows:
The test specimens were conditioned and subjected to a leaching schedule (after vacuum impregnation) as stipulated in ASTM D1413-76 (as recommended in ASTM D3345-74). All test specimens were then air dried for two weeks to constant weight.
The specimens were each positioned at the base of a 500 ml polyethylene culture jar (numbered according to each test specimen) and covered with 200 g of sand (pre-washed, sterilised and air conditioned in the laboratory) to which was added 25 g of de-ionised water. A further two containers containing watered sand but no timber were also prepared. All the jars were sealed (lids pre-pierced and covered with stainless steel mesh for aeration).
Two days after specimen placement, 200 termites were added to each culture jar (90% workers and 10% soldiers) and the jars re-sealed. The jars were incubated at a mean temperature and relative humidity of 27.5° C. and 75-90% for 4 weeks. The containers were provided with an artificial lighting regime of 10 hours light and 14 hours darkness.
After 1 week and 4 weeks each container was examined to determine termite mortality and normal tunneling behaviour patterns as follows:
Is there tunneling present: YES/NO
Are there any termites on the surface of the soil: YES/NO (if yes how many, i.e. 1-25% of pop, 26-50% of pop, 51-100% of pop.)
Are any dead termites visible: YES/NO (if yes how many, 1-33%, 34-66%, 67-100%)
After 4 weeks the test specimens were removed and cleaned of debris. Each block was examined and visually rated for termite damage using the scoring system detailed above.

[1] = 1 week, solution conc. 1%, ethanol carrier
[2] = 1 week, solution conc. 3%, ethanol carrier
[3] = 1 week, solution conc. 5%, ethanol carrier
[4] = 1 week, solution conc. 7%, ethanol carrier
[5] = 1 week, solution conc. 10%, ethanol carrier
[6] = 4 weeks, solution conc. 1%, ethanol carrier
[7] = 4 weeks, solution conc. 3%, ethanol carrier
[8] = 4 weeks, solution conc. 5%, ethanol carrier
[9] = 4 weeks, solution conc. 7%, ethanol carrier
[10] = 4 weeks, solution conc. 10%, ethanol carrier
[11] = solution conc. 1%, ethanol carrier
[12] = solution conc. 3%, ethanol carrier
[13] = solution conc. 5%, ethanol carrier
[14] = solution conc. 7%, ethanol carrier
[15] = solution conc. 10%, ethanol carrier
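Throughout, for Termite Attack Rating: score 0 no attack 2 slight 3 average 4 strong attack.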

Structure (SMILES): CC(C)(c1cc(Br)c(O)c(Br)c1)c1cc(Br)c(O)c(Br)c1 [TBBA, Tetrabromobisphenol A]
- Surface Activity (termites on the surface of the soil) [1]: No/No
- Tunneling Activity [1]: Yes/Yes
- Visible Mortality [1]: No/No
- Surface Activity (termites on the surface of the soil) [2]: No/No
- Tunneling Activity [2]: Yes/Yes
- Visible Mortality [2]: No and No/No
- Surface Activity (termites on the surface of the soil) [3]: 1-25 % (of pop.)
- Tunneling Activity [3]: Yes/Yes
- Surface Activity (termites on the surface of the soil) [4]: No/No
- Tunneling Activity [4]: Yes/Yes
- Visible Mortality [4]: No
- Surface Activity (termites on the surface of the soil) [5]: No
- Tunneling Activity [5]: Yes/Yes
- Visible Mortality [5]: No
- Surface Activity (termites on the surface of the soil) [6]: No/No
- Tunneling Activity [6]: Yes/Yes
- Visible Mortality [6]: No/No
- Surface Activity (termites on the surface of the soil) [7]: No/No
- Tunneling Activity [7]: Yes/Yes
- Surface Activity (termites on the surface of the soil) [8]: No
- Tunneling Activity [8]: Yes/Yes
- Surface Activity (termites on the surface of the soil) [9]: No/No
- Tunneling Activity [9]: Yes/Yes
- Surface Activity (termites on the surface of the soil) [10]: 1-25 % (of pop.)
- Tunneling Activity [10]: Yes/Yes
- Visible Mortality [10]: 67-100 % (of pop.)
- reduction in termite attack (concentrated solutions, followed by leaching): a significant reduction in termite attack
- repellent effect on termites (surface activity data) (ethanol carrier): a degree of termite repellency throughout the incubation period
- toxic value, lower (concentration at which the wood is no longer sufficiently protected) (mean loading, solution concentration 5%, ethanol carrier, leached, 4 weeks): 32.52 kg/m^3
- toxic value, upper (lowest concentration which protects the wood) (mean loading, solution concentration 7%, ethanol carrier, leached, 4 weeks): 44.00 kg/m^3
- Mean Rating (termite attack) [11]: 2.75
- Termite Attack Rating [11]: 3 and 2 and 4
- Mean Rating (termite attack) [12]: 2.25
- Termite Attack Rating [12]: 2 and 3
- Mean Rating (termite attack) [13]: 1.50
- Termite Attack Rating [13]: 1 and 2
- Mean Rating (termite attack) [14]: 1.00
- Termite Attack Rating [14]: 1
- Mean Rating (termite attack) [15]: 1.00
- Termite Attack Rating [15]: 1
